From PMC5053573, “Structure-Based Design of Tetrahydroisoquinoline-7-carboxamides as Selective Discoidin Domain Receptor 1 (DDR1) Inhibitors” (Journal of Medicinal Chemistry, 2016)

Tests used:
Experiment in all cases: biochemical
Settings in all cases: read-out: %Ctrl @ 1000nM
[1] = molecular target: ABL1(F317L)-nonphosphorylated (Homo sapiens, UniProt P00519, F317L)
CAMKK1 = CAMKK1 (Homo sapiens, UniProt Q8N5S9)
QSK = molecular target: T1, QSK (Homo sapiens, UniProt Q9Y2K2)
T1 construct: gene SIK3

[2] = molecular target: RPS6KA5(Kin.Dom.2-C-terminal) (Homo sapiens, UniProt O75582)
NDR2 = molecular target: T2, NDR2 (Homo sapiens, UniProt Q9Y2H1)
T2 construct: gene STK38L
T2 sequence (Q9Y2H1 whole entry): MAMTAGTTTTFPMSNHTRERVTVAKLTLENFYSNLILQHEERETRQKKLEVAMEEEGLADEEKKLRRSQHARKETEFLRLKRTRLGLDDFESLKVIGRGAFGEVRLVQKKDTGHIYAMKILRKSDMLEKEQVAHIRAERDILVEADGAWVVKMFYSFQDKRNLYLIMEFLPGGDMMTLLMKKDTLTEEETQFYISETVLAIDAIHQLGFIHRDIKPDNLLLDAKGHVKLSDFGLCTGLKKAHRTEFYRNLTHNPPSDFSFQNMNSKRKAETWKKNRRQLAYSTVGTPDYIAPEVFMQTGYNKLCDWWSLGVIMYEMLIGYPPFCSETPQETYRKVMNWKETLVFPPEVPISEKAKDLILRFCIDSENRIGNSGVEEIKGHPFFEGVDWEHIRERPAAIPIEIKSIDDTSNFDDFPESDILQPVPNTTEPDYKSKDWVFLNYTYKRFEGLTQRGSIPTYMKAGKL

FLT3(R834Q) = FLT3(R834Q) (Homo sapiens, UniProt P36888, R834Q)
EGFR(T790M) = EGFR(T790M) (Homo sapiens, UniProt P00533, T790M)
CDKL2 = CDKL2 (Homo sapiens, UniProt Q92772)
FLT3(D835Y) = FLT3(D835Y) (Homo sapiens, UniProt P36888, D835Y)
DAPK3 = DAPK3 (Homo sapiens, UniProt O43293)
ANKK1 = ANKK1 (Homo sapiens, UniProt Q8NFD2)
ANKK1, sequence (Q8NFD2 whole entry): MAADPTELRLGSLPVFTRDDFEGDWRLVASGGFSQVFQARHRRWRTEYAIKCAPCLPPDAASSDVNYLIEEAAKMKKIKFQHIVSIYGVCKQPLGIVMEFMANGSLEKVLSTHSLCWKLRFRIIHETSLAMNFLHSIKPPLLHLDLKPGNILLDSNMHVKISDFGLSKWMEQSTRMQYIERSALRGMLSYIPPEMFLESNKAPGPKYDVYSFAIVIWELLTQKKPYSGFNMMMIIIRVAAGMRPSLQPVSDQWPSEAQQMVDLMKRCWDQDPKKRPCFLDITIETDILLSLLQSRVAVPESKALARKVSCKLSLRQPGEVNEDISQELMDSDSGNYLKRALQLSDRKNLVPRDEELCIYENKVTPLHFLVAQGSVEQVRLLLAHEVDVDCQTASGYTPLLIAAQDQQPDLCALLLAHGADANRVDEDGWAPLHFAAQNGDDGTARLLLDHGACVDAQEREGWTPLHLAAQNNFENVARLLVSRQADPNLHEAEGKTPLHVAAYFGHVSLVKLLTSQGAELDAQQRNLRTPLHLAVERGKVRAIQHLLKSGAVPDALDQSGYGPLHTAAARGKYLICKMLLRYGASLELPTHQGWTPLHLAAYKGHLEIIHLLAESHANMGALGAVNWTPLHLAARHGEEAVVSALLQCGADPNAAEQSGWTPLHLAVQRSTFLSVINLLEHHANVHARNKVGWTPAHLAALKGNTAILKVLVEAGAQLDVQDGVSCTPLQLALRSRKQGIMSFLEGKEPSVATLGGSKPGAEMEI

PIK3CA = PIK3CA (Homo sapiens, UniProt P42336)
MAPKAPK5 = MAPKAPK5 (Homo sapiens, UniProt Q8IW41)
MAPKAPK5, sequence (Q8IW41 whole entry): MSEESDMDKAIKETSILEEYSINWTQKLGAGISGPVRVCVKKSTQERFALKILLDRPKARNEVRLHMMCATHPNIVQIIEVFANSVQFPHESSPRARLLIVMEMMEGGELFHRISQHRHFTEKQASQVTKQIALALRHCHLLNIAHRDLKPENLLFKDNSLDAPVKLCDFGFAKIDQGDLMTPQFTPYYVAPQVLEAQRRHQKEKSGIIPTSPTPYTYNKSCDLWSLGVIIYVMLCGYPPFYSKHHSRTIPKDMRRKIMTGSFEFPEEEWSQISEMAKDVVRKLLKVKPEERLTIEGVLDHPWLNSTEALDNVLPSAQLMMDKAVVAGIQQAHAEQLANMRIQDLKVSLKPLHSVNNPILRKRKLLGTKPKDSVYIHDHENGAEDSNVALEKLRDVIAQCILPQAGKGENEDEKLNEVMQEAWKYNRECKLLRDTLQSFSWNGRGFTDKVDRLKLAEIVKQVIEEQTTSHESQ

[3] = molecular target: JAK3(JH1domain-catalytic) (Homo sapiens, UniProt P52333)
[4] = molecular target: T3, RSK1(Kin.Dom.1-N-terminal) (Homo sapiens, UniProt Q15418)
T3 construct: gene RPS6KA1

PKAC-alpha = molecular target: T4, PKAC-alpha (Homo sapiens, UniProt P17612)
T4 construct: gene PRKACA

PLK2 = PLK2 (Homo sapiens, UniProt Q9NYY3)
PLK2, sequence (Q9NYY3 whole entry): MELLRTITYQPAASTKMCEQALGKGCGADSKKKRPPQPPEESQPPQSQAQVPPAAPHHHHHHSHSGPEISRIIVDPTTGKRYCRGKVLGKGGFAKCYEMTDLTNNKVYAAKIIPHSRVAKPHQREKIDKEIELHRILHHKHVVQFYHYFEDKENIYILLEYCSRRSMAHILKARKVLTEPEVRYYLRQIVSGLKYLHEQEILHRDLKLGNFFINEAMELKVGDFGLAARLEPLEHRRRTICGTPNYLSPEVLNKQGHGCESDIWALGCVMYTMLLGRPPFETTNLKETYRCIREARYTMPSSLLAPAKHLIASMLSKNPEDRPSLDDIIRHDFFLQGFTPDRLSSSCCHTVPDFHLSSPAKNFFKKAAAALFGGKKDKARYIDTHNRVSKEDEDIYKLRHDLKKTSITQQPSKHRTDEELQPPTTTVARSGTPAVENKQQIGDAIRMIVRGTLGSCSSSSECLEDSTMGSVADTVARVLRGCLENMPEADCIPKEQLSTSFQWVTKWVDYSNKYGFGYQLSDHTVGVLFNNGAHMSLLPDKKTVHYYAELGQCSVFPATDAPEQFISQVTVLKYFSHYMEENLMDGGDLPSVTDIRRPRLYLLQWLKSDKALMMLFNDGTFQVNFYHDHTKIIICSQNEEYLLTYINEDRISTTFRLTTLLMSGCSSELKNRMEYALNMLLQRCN

CASK = CASK (Homo sapiens, UniProt O14936)
CSNK1A1 = CSNK1A1 (Homo sapiens, UniProt P48729)
EGFR(L861Q) = EGFR(L861Q) (Homo sapiens, UniProt P00533, L861Q)
GAK = GAK (Homo sapiens, UniProt O14976)
DAPK2 = DAPK2 (Homo sapiens, UniProt Q9UIK4)
DAPK2, sequence (Q9UIK4 whole entry): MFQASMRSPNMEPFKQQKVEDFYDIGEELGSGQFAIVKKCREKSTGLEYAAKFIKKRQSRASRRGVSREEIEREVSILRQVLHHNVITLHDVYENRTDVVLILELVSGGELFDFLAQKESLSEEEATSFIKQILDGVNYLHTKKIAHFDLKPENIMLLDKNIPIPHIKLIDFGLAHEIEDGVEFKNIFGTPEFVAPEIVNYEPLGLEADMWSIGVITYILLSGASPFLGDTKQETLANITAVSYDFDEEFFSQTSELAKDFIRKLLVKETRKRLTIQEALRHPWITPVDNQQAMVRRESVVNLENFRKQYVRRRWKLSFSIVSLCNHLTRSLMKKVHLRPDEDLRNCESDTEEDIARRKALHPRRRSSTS

NEK7 = NEK7 (Homo sapiens, UniProt Q8TDX7)
PRKD1 = PRKD1 (Homo sapiens, UniProt Q15139)
PRKD1, sequence (Q15139 whole entry): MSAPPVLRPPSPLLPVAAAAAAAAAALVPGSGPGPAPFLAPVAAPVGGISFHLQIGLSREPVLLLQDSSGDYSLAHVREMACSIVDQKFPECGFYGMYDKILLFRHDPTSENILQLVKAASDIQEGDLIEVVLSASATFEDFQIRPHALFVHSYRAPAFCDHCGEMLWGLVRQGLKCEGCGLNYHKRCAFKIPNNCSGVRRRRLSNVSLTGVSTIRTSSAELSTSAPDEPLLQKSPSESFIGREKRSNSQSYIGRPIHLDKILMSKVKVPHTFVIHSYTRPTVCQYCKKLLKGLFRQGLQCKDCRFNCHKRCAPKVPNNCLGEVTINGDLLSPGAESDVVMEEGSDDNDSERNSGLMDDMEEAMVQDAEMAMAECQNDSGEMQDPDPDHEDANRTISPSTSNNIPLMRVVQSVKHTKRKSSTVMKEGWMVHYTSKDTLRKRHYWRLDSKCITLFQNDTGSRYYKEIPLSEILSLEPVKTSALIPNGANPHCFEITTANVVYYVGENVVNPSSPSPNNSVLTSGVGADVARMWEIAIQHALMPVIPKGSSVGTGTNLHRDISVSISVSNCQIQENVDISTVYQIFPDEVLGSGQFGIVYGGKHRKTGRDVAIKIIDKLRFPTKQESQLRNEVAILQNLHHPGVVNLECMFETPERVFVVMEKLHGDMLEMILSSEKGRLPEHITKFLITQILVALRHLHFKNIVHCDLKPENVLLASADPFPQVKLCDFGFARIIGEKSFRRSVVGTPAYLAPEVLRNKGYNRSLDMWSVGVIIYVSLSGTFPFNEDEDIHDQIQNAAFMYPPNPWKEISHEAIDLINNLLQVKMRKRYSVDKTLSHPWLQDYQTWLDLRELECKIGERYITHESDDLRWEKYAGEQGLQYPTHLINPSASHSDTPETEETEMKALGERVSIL

[5] = molecular target: RPS6KA4(Kin.Dom.2-C-terminal) (Homo sapiens, UniProt O75676)
ROCK2 = ROCK2 (Homo sapiens, UniProt O75116)
CDKL3 = CDKL3 (Homo sapiens, UniProt Q8IVW4)
[6] = molecular target: JAK1(JH2domain-pseudokinase) (Homo sapiens, UniProt P23458)
MST1R = MST1R (Homo sapiens, UniProt Q04912)
MEK4 = molecular target: T5, MEK4 (Homo sapiens, UniProt P45985)
T5 construct: gene MAP2K4

EPHB2 = EPHB2 (Homo sapiens, UniProt P29323)
EPHA7 = EPHA7 (Homo sapiens, UniProt Q15375)
ERBB3 = ERBB3 (Homo sapiens, UniProt P21860)
EGFR(L858R,T790M) = EGFR(L858R,T790M) (Homo sapiens, UniProt P00533, L858R/T790M)
EGFR(L858R,T790M), sequence (P00533 whole entry T790M/L858R): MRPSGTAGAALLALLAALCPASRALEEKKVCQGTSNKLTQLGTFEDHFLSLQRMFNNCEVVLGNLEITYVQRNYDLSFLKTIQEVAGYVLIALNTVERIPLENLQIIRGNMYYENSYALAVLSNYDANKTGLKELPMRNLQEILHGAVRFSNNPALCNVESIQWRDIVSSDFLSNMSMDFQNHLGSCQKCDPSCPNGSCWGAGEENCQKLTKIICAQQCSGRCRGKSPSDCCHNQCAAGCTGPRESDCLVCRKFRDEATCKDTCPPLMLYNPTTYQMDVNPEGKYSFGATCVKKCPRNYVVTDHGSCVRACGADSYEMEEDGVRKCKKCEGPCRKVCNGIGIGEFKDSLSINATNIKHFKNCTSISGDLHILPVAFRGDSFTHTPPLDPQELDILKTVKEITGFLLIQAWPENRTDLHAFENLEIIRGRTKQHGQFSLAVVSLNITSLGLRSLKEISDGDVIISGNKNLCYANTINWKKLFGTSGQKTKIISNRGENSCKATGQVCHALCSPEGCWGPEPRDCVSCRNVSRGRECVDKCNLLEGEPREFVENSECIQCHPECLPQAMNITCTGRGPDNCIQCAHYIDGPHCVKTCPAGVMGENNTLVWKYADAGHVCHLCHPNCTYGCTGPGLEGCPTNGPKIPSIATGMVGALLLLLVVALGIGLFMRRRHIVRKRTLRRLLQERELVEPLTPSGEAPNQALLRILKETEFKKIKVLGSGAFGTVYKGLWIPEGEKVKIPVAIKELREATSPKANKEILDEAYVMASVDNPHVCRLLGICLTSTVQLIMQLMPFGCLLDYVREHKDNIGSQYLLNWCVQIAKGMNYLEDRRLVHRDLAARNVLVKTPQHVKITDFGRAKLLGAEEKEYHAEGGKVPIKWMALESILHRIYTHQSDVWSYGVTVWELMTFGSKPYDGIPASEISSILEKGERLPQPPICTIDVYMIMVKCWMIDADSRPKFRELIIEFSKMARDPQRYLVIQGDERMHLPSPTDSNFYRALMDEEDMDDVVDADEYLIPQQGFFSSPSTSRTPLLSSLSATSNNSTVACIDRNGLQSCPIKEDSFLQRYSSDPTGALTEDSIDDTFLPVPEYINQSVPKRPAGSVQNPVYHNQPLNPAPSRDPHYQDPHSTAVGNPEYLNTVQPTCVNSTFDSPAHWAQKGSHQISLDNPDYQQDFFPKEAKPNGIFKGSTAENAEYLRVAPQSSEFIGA

remaining activity at 1 µM [1]: 38% | remaining activity at 1 µM (CAMKK1): 64% | remaining activity at 1 µM (QSK): 94% | remaining activity at 1 µM [2]: 100% | remaining activity at 1 µM (NDR2): 100% | remaining activity at 1 µM (FLT3(R834Q)): 86% | remaining activity at 1 µM (EGFR(T790M)): 100% | remaining activity at 1 µM (CDKL2): 93% | remaining activity at 1 µM (FLT3(D835Y)): 40% | remaining activity at 1 µM (DAPK3): 69% | remaining activity at 1 µM (ANKK1): 63% | remaining activity at 1 µM (PIK3CA): 100% | remaining activity at 1 µM (MAPKAPK5): 100% | remaining activity at 1 µM [3]: 100% | remaining activity at 1 µM [4]: 96% | remaining activity at 1 µM (PKAC-alpha): 87% | remaining activity at 1 µM (PLK2): 100% | remaining activity at 1 µM (CASK): 100% | remaining activity at 1 µM (CSNK1A1): 57% | remaining activity at 1 µM (EGFR(L861Q)): 97% | remaining activity at 1 µM (GAK): 95% | remaining activity at 1 µM (DAPK2): 94% | remaining activity at 1 µM (NEK7): 87% | remaining activity at 1 µM (PRKD1): 95% | remaining activity at 1 µM [5]: 100% | remaining activity at 1 µM (ROCK2): 96% | remaining activity at 1 µM (CDKL3): 100% | remaining activity at 1 µM [6]: 100% | remaining activity at 1 µM (MST1R): 97% | remaining activity at 1 µM (MEK4): 96% | remaining activity at 1 µM (EPHB2): 85% | remaining activity at 1 µM (EPHA7): 62% | remaining activity at 1 µM (ERBB3): 100% | remaining activity at 1 µM (EGFR(L858R,T790M)): 100%
Compound: Cc1cn(-c2cc(NC(=O)c3ccc4c(c3)CN(c3cncnc3)C[C@@H]4C)cc(C(F)(F)F)c2)cn1 [Compound 6j]
